Reference: patent publication US20010020002A1, “Androgen activity antagonists as therapies for anorexia, anorexia nervosa and disorders characterized by a pathologically underweight condition” (VELA PHARMACEUTICALS INC., priority 1997, published 2001)

Legend:
[1] = in vivo; cited from earlier work
[2] = Example 1: flutamide therapy of a patient with anorexia nervosa; type: in vivo, human; conditions: person with AN, 250 mg daily, follow-up in one week
Procedure: The dose of flutamide is increased to 500 mg daily (250 mg twice a day). They then return every month for an assessment of their symptomatology using the Yale-Brown-Cornell Eating Disorder Scale (YBC-EDS).

[3] = Example 5: flutamide therapy of cachexia in an AIDS patient; type: in vivo, human; conditions: person with AIDS, 750 mg daily in three divided doses

Row | SMILES | half-life [1] | tolerability of therapy [2] | initial side effects [3] | tolerability of therapy [3]
1 | CC1(C)NC(=O)N(c2ccc([N+](=O)[O-])c(C(F)(F)F)c2)C1=O [Nilutamide, nilutamide] | 40 h |  |  | 
2 | CC(C)C(=O)Nc1ccc([N+](=O)[O-])c(C(F)(F)F)c1 [flutamide] | 5.2 h | tolerated the therapy well | initial problems with diarrhea and breast tenderness | tolerated well
